According to PubChem BioAssay AID1259407 (Chemical Carcinogenesis Research Information System (CCRIS), 2018):
The source made the active and inactive calls. The rule behind the calls is not given here.

Test system: CCRIS mutagenicity, Ames/micronucleus/aberration tests
Test: CCRIS mutagenicity studies
[1] = Test System: AMES SALMONELLA TYPHIMURIUM, Strain/Indicator: TA97, Metabolic Activation: NONE, Method: PREINCUBATION
[2] = Test System: AMES SALMONELLA TYPHIMURIUM, Strain/Indicator: TA98, Metabolic Activation: NONE, Method: PREINCUBATION
[3] = Test System: AMES SALMONELLA TYPHIMURIUM, Strain/Indicator: TA100, Metabolic Activation: NONE, Method: PREINCUBATION

**Q.** How did the mutagenic call (Test System: AMES SALMONELLA TYPHIMURIUM, Strain/Indicator: TA97, Metabolic Activation: HAMSTER, LIVER, S-9, AROCLOR 1254 (10%), Method: PREINCUBATION) turn out when `Nc1cccc(O)c1` was run?
**A.** inactive; negative

**Q.** What about the mutagenic call [1] of the same molecule?
**A.** inactive; negative

**Q.** And the mutagenic call (Test System: AMES SALMONELLA TYPHIMURIUM, Strain/Indicator: TA97, Metabolic Activation: RAT, LIVER, S-9, AROCLOR 1254 (10%), Method: PREINCUBATION)?
**A.** inactive; negative

**Q.** And the mutagenic call (Test System: AMES SALMONELLA TYPHIMURIUM, Strain/Indicator: TA98, Metabolic Activation: HAMSTER, LIVER, S-9, AROCLOR 1254 (5 OR 10%), Method: PREINCUBATION)?
**A.** active; positive

**Q.** And the mutagenic call (Test System: AMES SALMONELLA TYPHIMURIUM, Strain/Indicator: TA98, Metabolic Activation: HAMSTER, LIVER, S-9, AROCLOR 1254 (30%), Method: PREINCUBATION)?
**A.** inactive; negative

**Q.** And the mutagenic call (Test System: AMES SALMONELLA TYPHIMURIUM, Strain/Indicator: TA98, Metabolic Activation: NONE)?
**A.** inactive; negative

**Q.** What about the mutagenic call [2] of the same molecule?
**A.** inactive; negative

**Q.** What about the mutagenic call (Test System: AMES SALMONELLA TYPHIMURIUM, Strain/Indicator: TA98, Metabolic Activation: RAT, LIVER, S-9, AROCLOR 1254 (5, 10 OR 30%), Method: PREINCUBATION) of the same molecule?
**A.** inactive; negative

**Q.** What about the mutagenic call (Test System: AMES SALMONELLA TYPHIMURIUM, Strain/Indicator: TA98, Metabolic Activation: S-9) of the same molecule?
**A.** inactive; negative

**Q.** What about the mutagenic call (Test System: AMES SALMONELLA TYPHIMURIUM, Strain/Indicator: TA100, Metabolic Activation: HAMSTER, LIVER, S-9, AROCLOR 1254 (10%), Method: PREINCUBATION) of the same molecule?
**A.** inactive; negative

**Q.** And the mutagenic call [3]?
**A.** inactive; negative

**Q.** What about the mutagenic call (Test System: AMES SALMONELLA TYPHIMURIUM, Strain/Indicator: TA100, Metabolic Activation: RAT, LIVER, S-9, AROCLOR 1254 (10%), Method: PREINCUBATION) of the same molecule?
**A.** inactive; negative

**Q.** And the mutagenic call (Test System: AMES SALMONELLA TYPHIMURIUM, Strain/Indicator: TA1535, Metabolic Activation: HAMSTER, LIVER, S-9, AROCLOR 1254 (10%), Method: PREINCUBATION)?
**A.** inactive; negative

**Q.** What about the mutagenic call (Test System: AMES SALMONELLA TYPHIMURIUM, Strain/Indicator: TA1535, Metabolic Activation: NONE, Method: PREINCUBATION) of the same molecule?
**A.** inactive; negative

**Q.** What about the mutagenic call (Test System: AMES SALMONELLA TYPHIMURIUM, Strain/Indicator: TA1535, Metabolic Activation: RAT, LIVER, S-9, AROCLOR 1254 (10%), Method: PREINCUBATION) of the same molecule?
**A.** inactive; negative

**Q.** With `CCC1(c2ccccc2)C(=O)NC(=O)NC1=O` as the molecule, how does the mutagenic call (Test System: AMES SALMONELLA TYPHIMURIUM, Strain/Indicator: TA97, Metabolic Activation: HAMSTER LIVER S-9, AROCLOR 1254 (10%), Method: PREINCUBATION) read?
**A.** inactive; negative

**Q.** And the mutagenic call [1]?
**A.** inactive; negative

**Q.** What about the mutagenic call (Test System: AMES SALMONELLA TYPHIMURIUM, Strain/Indicator: TA97, Metabolic Activation: NONE, Method: STANDARD PLATE) of the same molecule?
**A.** inactive; negative

**Q.** And the mutagenic call (Test System: AMES SALMONELLA TYPHIMURIUM, Strain/Indicator: TA97, Metabolic Activation: RAT LIVER S-9, AROCLOR 1254 (10%), Method: PREINCUBATION)?
**A.** inactive; negative

**Q.** What about the mutagenic call (Test System: AMES SALMONELLA TYPHIMURIUM, Strain/Indicator: TA97, Metabolic Activation: S-9, Method: STANDARD PLATE) of the same molecule?
**A.** inactive; negative

**Q.** What about the mutagenic call (Test System: AMES SALMONELLA TYPHIMURIUM, Strain/Indicator: TA98, Metabolic Activation: HAMSTER LIVER S-9, AROCLOR 1254 (10%), Method: PREINCUBATION) of the same molecule?
**A.** inactive; negative

**Q.** And the mutagenic call [2]?
**A.** inactive; negative

**Q.** And the mutagenic call (Test System: AMES SALMONELLA TYPHIMURIUM, Strain/Indicator: TA98, Metabolic Activation: NONE, Method: STANDARD PLATE)?
**A.** inactive; negative

**Q.** And the mutagenic call (Test System: AMES SALMONELLA TYPHIMURIUM, Strain/Indicator: TA98, Metabolic Activation: RAT LIVER S-9, AROCLOR 1254 (10%), Method: PREINCUBATION)?
**A.** inactive; negative

**Q.** And the mutagenic call (Test System: AMES SALMONELLA TYPHIMURIUM, Strain/Indicator: TA98, Metabolic Activation: RAT, LIVER, S-9, AROCLOR 1254, Method: STANDARD PLATE)?
**A.** inactive; negative

**Q.** What about the mutagenic call (Test System: AMES SALMONELLA TYPHIMURIUM, Strain/Indicator: TA98, Metabolic Activation: S-9, Method: STANDARD PLATE) of the same molecule?
**A.** inactive; negative

**Q.** What about the mutagenic call (Test System: AMES SALMONELLA TYPHIMURIUM, Strain/Indicator: TA100, Metabolic Activation: HAMSTER LIVER S-9, AROCLOR 1254 (10%), Method: PREINCUBATION) of the same molecule?
**A.** inactive; negative

**Q.** What about the mutagenic call [3] of the same molecule?
**A.** inactive; negative

**Q.** And the mutagenic call (Test System: AMES SALMONELLA TYPHIMURIUM, Strain/Indicator: TA100, Metabolic Activation: NONE, Method: STANDARD PLATE)?
**A.** inactive; negative

**Q.** And the mutagenic call (Test System: AMES SALMONELLA TYPHIMURIUM, Strain/Indicator: TA100, Metabolic Activation: RAT LIVER S-9, AROCLOR 1254 (10%), Method: PREINCUBATION)?
**A.** inactive; negative

**Q.** And the mutagenic call (Test System: AMES SALMONELLA TYPHIMURIUM, Strain/Indicator: TA100, Metabolic Activation: RAT, LIVER, S-9, AROCLOR 1254, Method: STANDARD PLATE)?
**A.** inactive; negative

**Q.** What about the mutagenic call (Test System: AMES SALMONELLA TYPHIMURIUM, Strain/Indicator: TA100, Metabolic Activation: S-9, Method: STANDARD PLATE) of the same molecule?
**A.** inactive; negative

**Q.** What about the mutagenic call (Test System: AMES SALMONELLA TYPHIMURIUM, Strain/Indicator: TA102, Metabolic Activation: NONE, Method: STANDARD PLATE) of the same molecule?
**A.** inactive; negative

**Q.** And the mutagenic call (Test System: AMES SALMONELLA TYPHIMURIUM, Strain/Indicator: TA102, Metabolic Activation: S-9, Method: STANDARD PLATE)?
**A.** inactive; negative

**Q.** And the mutagenic call (Test System: AMES SALMONELLA TYPHIMURIUM, Strain/Indicator: TA1535, Metabolic Activation: HAMSTER LIVER S-9, AROCLOR 1254 (10%), Method: PREINCUBATION)?
**A.** inactive; negative

**Q.** What about the mutagenic call (Test System: AMES SALMONELLA TYPHIMURIUM, Strain/Indicator: TA1535, Metabolic Activation: NONE, Method: STANDARD PLATE) of the same molecule?
**A.** active; positive

**Q.** What about the mutagenic call (Test System: AMES SALMONELLA TYPHIMURIUM, Strain/Indicator: TA1535, Metabolic Activation: RAT LIVER S-9, AROCLOR 1254 (5 OR 10%), Method: PREINCUBATION) of the same molecule?
**A.** inactive; negative

**Q.** And the mutagenic call (Test System: AMES SALMONELLA TYPHIMURIUM, Strain/Indicator: TA1535, Metabolic Activation: RAT, LIVER, S-9, AROCLOR 1254, Method: STANDARD PLATE)?
**A.** inactive; negative

**Q.** What about the mutagenic call (Test System: AMES SALMONELLA TYPHIMURIUM, Strain/Indicator: TA1537, Metabolic Activation: NONE, Method: STANDARD PLATE) of the same molecule?
**A.** inactive; negative

**Q.** What about the mutagenic call (Test System: AMES SALMONELLA TYPHIMURIUM, Strain/Indicator: TA1537, Metabolic Activation: RAT, LIVER, S-9, AROCLOR 1254, Method: STANDARD PLATE) of the same molecule?
**A.** inactive; negative

**Q.** And the mutagenic call (Test System: AMES SALMONELLA TYPHIMURIUM, Strain/Indicator: TA1538, Metabolic Activation: NONE, Method: STANDARD PLATE)?
**A.** inactive; negative

**Q.** What about the mutagenic call (Test System: AMES SALMONELLA TYPHIMURIUM, Strain/Indicator: TA1538, Metabolic Activation: RAT, LIVER, S-9, AROCLOR 1254, Method: STANDARD PLATE) of the same molecule?
**A.** inactive; negative

**Q.** And the mutagenic call (Test System: CHINESE HAMSTER V-79, Strain/Indicator: V-79/6-THIOGUANINE, Metabolic Activation: NONE, Method: REPLATING)?
**A.** active; positive

**Q.** And the mutagenic call (Test System: MOUSE LYMPHOMA, Strain/Indicator: L5178Y (TK+/-)/TRIFLUROTHYMIDINE, Metabolic Activation: NONE, Method: SUSPENSION/PLATE)?
**A.** inactive; negative

**Q.** And the mutagenic call (Test System: MOUSE LYMPHOMA, Strain/Indicator: L5178Y (TK+/TK-), Metabolic Activation: NONE, Method: SUSPENSION/PLATE)?
**A.** inactive; negative

**Q.** What about the mutagenic call (Test System: MOUSE LYMPHOMA, Strain/Indicator: L5178Y (TK+/TK-), Metabolic Activation: RAT, LIVER, S-9, AROCLOR 1254, Method: SUSPENSION/PLATE) of the same molecule?
**A.** active; positive

**Q.** What about the mutagenic call (Test System: MOUSE LYMPHOMA, Strain/Indicator: L5178Y (TK+/TK-), Metabolic Activation: RAT, LIVER, S-9, Method: SUSPENSION/PLATE) of the same molecule?
**A.** inactive; negative

**Q.** And the mutagenic call (Test System: UDS RAT HEPATOCYTES, Strain/Indicator: BROMODEOXYURIDINE INCORP, Metabolic Activation: NONE, Method: FLOW CYTOMETRIC ANALYSIS)?
**A.** inactive; negative

**Q.** And the mutagenic call (Test System: UDS RAT HEPATOCYTES, Strain/Indicator: THY INCORP, Metabolic Activation: NONE, Method: AUTORADIOGRAPHY)?
**A.** inactive; negative

**Q.** What about the mutagenic call (Test System: UDS RAT HEPATOCYTES, Strain/Indicator: THY INCORP, Metabolic Activation: NONE, Method: LIQUID SCINTILLATION COUNTING) of the same molecule?
**A.** inactive; negative
